Key:
[1] = biological target: T1, eEF2K (Homo sapiens, UniProt O00418); test: Western blot analysis of eEF2K inhibition (p-EF2 Thr56) in MDA-MB-231 cells; type: cell-based; details: for eEF2K inhibition potential (p-EF2 Thr56): MDA-MB-231 (TNBC) cells, 2.5 to 20 micromolar, 2 h; for eEF2K inhibition, reduced p-EF2 (Thr56) levels: MDA-MB-231 cells, 2.5 micromolar, 2 h treatment
T1 sequence (O00418 1-725): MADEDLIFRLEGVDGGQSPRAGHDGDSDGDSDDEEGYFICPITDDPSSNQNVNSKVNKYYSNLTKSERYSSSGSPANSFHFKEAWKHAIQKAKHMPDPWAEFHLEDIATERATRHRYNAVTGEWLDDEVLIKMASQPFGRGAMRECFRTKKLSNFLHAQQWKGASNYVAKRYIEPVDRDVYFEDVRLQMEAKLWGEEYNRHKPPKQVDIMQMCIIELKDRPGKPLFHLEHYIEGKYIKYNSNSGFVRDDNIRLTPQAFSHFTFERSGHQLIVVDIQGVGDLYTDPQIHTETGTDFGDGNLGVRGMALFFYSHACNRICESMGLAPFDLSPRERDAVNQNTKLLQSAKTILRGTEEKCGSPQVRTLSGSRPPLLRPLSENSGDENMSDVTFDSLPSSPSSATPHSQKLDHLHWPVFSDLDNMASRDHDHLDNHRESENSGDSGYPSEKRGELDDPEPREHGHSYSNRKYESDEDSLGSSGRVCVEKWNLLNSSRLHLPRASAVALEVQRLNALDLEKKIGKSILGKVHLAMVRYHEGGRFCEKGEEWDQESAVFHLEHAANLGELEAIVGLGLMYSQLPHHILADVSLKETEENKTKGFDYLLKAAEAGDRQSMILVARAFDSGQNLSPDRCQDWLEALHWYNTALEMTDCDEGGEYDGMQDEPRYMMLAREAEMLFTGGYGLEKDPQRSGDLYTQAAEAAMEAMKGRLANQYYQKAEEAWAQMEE
Procedure: MeOH: distilled water by volume (%) (70:30) was used as the mobile phase for HPLC analysis for the inventive compound and the flow rate was set to 1 mL min^−1. Triple negative breast cancer (TNBC) cell lines (ER-, PR- and HER2-) MDA-MB-231 cells were purchased from the American Type Culture Collection (ATCC) (Manassas, VA, USA). MDA-MB-231 cells were cultured in Dulbecco's modified Eagle's medium (DMEM)/F12 supplemented with 10% FBS (Fetal Bovine Serum) and 100 U mL^−1 penicillin and streptomycin. Specific antibodies (p-EF2 (Thr56) (2331S), eEF2 (2332S), eEF2K (3692S) and GAPDH (5174S)) were purchased from Cell Signaling Technology (CST).
Western blot analysis was carried out according to previously reported studies to evaluate the eEF2K inhibition activity for the synthesized compounds. The synthesized compound was applied to MDA-MB-231 cells in the range of various concentrations from 2.5 to 20 micromolar for 2 h treatment. The expression levels of p-EF2 (Thr56) inhibition and eEF2K activity were determined by using related antibodies such as p-EF2 (Thr56), eEF2 and eEF2K. Glyceraldehyde 3-phosphate dehydrogenase (GAPDH) was used as a loading control.
To determine the effects of the synthesized compounds in inhibiting eEF2K activity in TNBC, MDA-MB-231 cells, we performed western blot analysis at concentrations ranging from 2.5 micromolar to 20 micromolar in a dose-dependent manner. eEF2K inhibition was detected by decreased phosphorylation levels of EF2 (p-EF2-Thr-56), a direct downstream substrate of the enzyme.

[2] = biological target: T1, eEF2K; details: cited from earlier work; for eEF2K inhibition (reported, in words): literature

Structure (SMILES) | eEF2K inhibition potential (p-EF2 Thr56) [1] | eEF2K inhibition, reduced p-EF2 (Thr56) levels [1] | eEF2K inhibition, reduced p-EF2 (Thr56) levels ([1]; listed as compound of the invention) | eEF2K inhibition (reported, in words) [2] | concentration reported to inhibit eEF2K ([2]; literature [44-46])
CCc1cccc2c3c([nH]c12)C(CC)(CC(=O)N1CCN(C)CC1)OCC3 (stereo not shown) [Inventive compound, 2-(1,8-diethyl-1,3,4,9-tetrahydropyrano [3,4-b]indol-1-yl)-1-(4-methylpiperazin-1-yl) ethan-1-one] | high inhibition potential | highest phospho-eEF2 (Thr56) inhibition | marked inhibition of eEF2K | – | –
CCCCCCCCCCCCCCCCn1cc[n+](Cc2ccccc2)c1C.[I-] [NH125] | – | – | – | does not inhibit EF2K but rather increases eEF2 phosphorylation | –
Cc1cc(C=C2C(=O)C=CC2=O)cc(C)c1O [TX1918] | – | – | – | did not show significant eEF2K inhibition | 10 µM
CCc1cccc2c3c([nH]c12)C(CC)(CC(=O)O)OCC3 (racemic) [Etodolac, (R,S)-2-[1,8-diethyl-1,3,4-tetrahydropyrano [3,4-b]indol-1-yl]acetic acid] | did not show any inhibition potential | – | – | – | –

Source: patent US20260049091A1, “2-(1,8-DIETHYL-1,3,4,9-TETRAHYDROPYRANO[3,4-B]INDOL-1-YL)-1-(4-METHYLPIPERAZIN-1-YL)ETHAN-1-ONE ETODOLAC DERIVATIVE AS EUKARYOTIC ELONGATION FACTOR 2 KINASE (EEF2K) INHIBITOR FOR TARGETED CANCER THERAPY” (BAHCESEHIR UNIVERSITESI, priority 2023, published 2026)
